Measurements reported in patent US9227923B2, “Pesticidal carboxamides” (Bayer Intellectual Property GmbH, priority 2009, dated 2016).

What was measured:
Format in all cases: in vivo
[1] = system: Two-Spotted Spider Mite (Tetranychus Urticae); test: Test against two-spotted spider mite (Tetranychus urticae), spray; details: active compound concentration of 100 ppm; adult mites; after 7 days
From the text: (§1) Solvent: 3 parts by weight of dimethylformamide
(§2) Emulsifier: 1 part by weight of polyoxyethylene alkyl phenyl ether

[2] = system: Tobacco Cutworm (Spodoptera litura) Larvae; test: Test against tobacco cutworm (Spodoptera litura) larvae, leaf dip; details: active compound concentration of 100 ppm, third instar larvae, after 7 days
Protocol: as §1, §2
Leaves of sweet potato were immersed in the test solution at the appropriate concentration, and the leaves were dried in air. The leaves were then placed in a petri dish having a diameter of 9 cm, and ten Spodoptera litura at third instar larvae were released therein. The petri dishes were placed in a temperature-controlled chamber at 25° C. After 2 days and 4 days more sweet potato leaves were added. After 7 days, the number of dead larvae was counted to calculate the insecticidal activity. An insecticidal activity of 100% means that all larvae were killed, whereas an insecticidal activity of 0% means that no larva was killed.

[3] = system: Cucurbit Leaf Beetle (Aulacophora Femoralis); test: Test against cucurbit leaf beetle (Aulacophora femoralis), leaf dip; details: active compound concentration of 100 ppm, second instar larvae, after 7 days
Protocol: as §1, §2
Leaves of cucumber were immersed in the test solution at the appropriate concentration, and the leaves were dried in air. The leaves were then put in a plastic cup containing sterilized black soil and five Aulacophora femoralis at second instar larvae were released in the cup. The cups were placed in a temperature-controlled chamber at 25° C. After 7 days, the number of dead larvae was counted, and thus the insecticidal activity was calculated. An insecticidal activity of 100% means that all larvae were killed, whereas an insecticidal activity of 0% means that no larva was killed.

For `CCC(=O)NCc1ccc(C(=O)Nc2c(C)cc(C(F)(C(F)(F)F)C(F)(F)F)cc2CC)cc1` [Compound 5-29], the acaricidal activity [1] was 100% and the insecticidal activity [2] was 100%.

With `CCc1cc(C(F)(C(F)(F)F)C(F)(F)F)cc(C)c1NC(=O)c1ccc(CNC(=O)CC(F)(F)F)cc1` [Compound 5-32] the acaricidal activity [1] was 100% and the insecticidal activity [2] was 100%.

In the case of `CCc1cc(C(F)(C(F)(F)F)C(F)(F)F)cc(C)c1NC(=O)c1ccc(CNC(=O)CSC)cc1` [Compound 5-33], the acaricidal activity [1] is reported as 100%.

`CCC(=O)NCc1ccc(C(=O)Nc2c(C)cc(C(F)(C(F)(F)F)C(F)(F)F)cc2CC)cc1F` [Compound 5-72] showed an acaricidal activity [1] of 100% and an insecticidal activity [2] of 100%.

Compound `CCc1cc(C(F)(C(F)(F)F)C(F)(F)F)cc(C)c1NC(=O)c1ccc(CNC(=O)CC2CC2)c(Cl)c1` [Compound 5-80] has an acaricidal activity [1] of 100% and an insecticidal activity [2] of 100%.

For `CCc1cc(C(F)(C(F)(F)F)C(F)(F)F)cc(C)c1NC(=O)c1ccc(CNC(=O)CC2CC2)c(Br)c1` [Compound 5-88], the acaricidal activity [1] was 100% and the insecticidal activity [2] was 100%.

With `CCc1cc(C(F)(C(F)(F)F)C(F)(F)F)cc(C)c1NC(=O)c1ccc(CNC(=O)COC)c(Br)c1` [Compound 5-91] the acaricidal activity [1] was 100% and the insecticidal activity [2] was 100%.

Work on `CCc1cc(C(F)(C(F)(F)F)C(F)(F)F)cc(C)c1NC(=O)c1ccc(CNC(=O)c2ccc(F)cc2)c(Br)c1` [Compound 5-92] yielded an acaricidal activity [1] of 100%.

`CCc1cc(C(F)(C(F)(F)F)C(F)(F)F)cc(C)c1NC(=O)c1ccc(CNC(=O)c2cccnc2Cl)c(Br)c1` [Compound 5-94] gave an acaricidal activity [1] of 100% and an insecticidal activity [2] of 100%.

Work on `CCc1cc(C(F)(C(F)(F)F)C(F)(F)F)cc(C)c1NC(=O)c1ccc(CNC(=O)CC(F)(F)F)c(C(F)(F)F)c1` [Compound 5-110] yielded an acaricidal activity [1] of 100% and an insecticidal activity [2] of 100%.

`CCc1cc(C(F)(C(F)(F)F)C(F)(F)F)cc(C)c1NC(=O)c1ccc(CNC(=O)c2cccnc2F)c(C(F)(F)F)c1` [Compound 5-112] gave an acaricidal activity [1] of 100% and an insecticidal activity [2] of 100%.

`CCc1cc(C(F)(C(F)(F)F)C(F)(F)C(F)(F)F)cc(C)c1NC(=O)c1ccc(CNC(=O)CC2CC2)c(F)c1` (stereo not shown) [Compound 5-147] gave an acaricidal activity [1] of 100% and an insecticidal activity [2] of 100%.

Work on `CCc1cc(C(F)(C(F)(F)F)C(F)(F)C(F)(F)F)cc(C)c1NC(=O)c1ccc(CNC(=O)CC2CC2)c(Cl)c1` (stereo not shown) [Compound 5-153] yielded an acaricidal activity [1] of 100% and an insecticidal activity [2] of 100%.

With `CCc1cc(C(F)(C(F)(F)F)C(F)(F)C(F)(F)F)cc(C)c1NC(=O)c1ccc(CNC(=O)CC(F)(F)F)c(Br)c1` (stereo not shown) [Compound 5-161] the insecticidal activity [3] was 100% and the insecticidal activity [2] was 100%.

`CCc1cc(C(F)(C(F)(F)F)C(F)(F)F)cc(C)c1NC(=O)c1ccc(CNC(=O)C[S+](C)[O-])c(Br)c1` (stereo not shown) [Compound 5-177] showed an insecticidal activity [3] of 100% and an insecticidal activity [2] of 100%.

`CCc1cc(C(F)(C(F)(F)F)C(F)(F)F)cc(C)c1NC(=O)c1ccc(CNC(=O)CS(C)(=O)=O)c(Br)c1` [Compound 5-178] showed an insecticidal activity [3] of 100% and an insecticidal activity [2] of 100%.

`CCc1cc(C(F)(C(F)(F)F)C(F)(F)F)cc(C)c1NC(=O)c1cc(F)c(CNC(=O)c2cccnc2Cl)cc1F` [Compound 5-183] gave an insecticidal activity [3] of 100% and an insecticidal activity [2] of 100%.

`CCC(=O)N(C)Cc1ccc(C(=O)Nc2c(C)cc(C(F)(C(F)(F)F)C(F)(F)F)cc2CC)cc1` [Compound 5-186] gave an acaricidal activity [1] of 100%.

Work on `CCc1cc(C(F)(C(F)(F)F)C(F)(F)F)cc(C)c1NC(=O)c1ccc(CN(C)C(=O)CC2CC2)cc1` [Compound 5-187] yielded an acaricidal activity [1] of 100%.

`CCc1cc(C(F)(C(F)(F)F)C(F)(F)F)cc(C)c1NC(=O)c1ccc(CN(C)C(=O)CC(F)(F)F)cc1` [Compound 5-188] was tested, and the acaricidal activity [1] was 100% and the insecticidal activity [2] was 100%.

`CCc1cc(C(F)(C(F)(F)F)C(F)(F)C(F)(F)F)cc(C)c1NC(=O)c1ccc(CNC(=O)CC(F)(F)F)c(I)c1` (stereo not shown) [Compound 5-198] was tested, and the insecticidal activity [3] was 100% and the insecticidal activity [2] was 100%.

Compound `CCc1cc(C(F)(C(F)(F)F)C(F)(F)C(F)(F)F)cc(C)c1NC(=O)c1ccc(CNC(C)=O)c(F)c1F` (stereo not shown) [Compound 5-201] has an insecticidal activity [3] of 100% and an insecticidal activity [2] of 100%.

`CCC(=O)NCc1ccc(C(=O)Nc2c(C)cc(C(F)(C(F)(F)F)C(F)(F)C(F)(F)F)cc2CC)c(F)c1F` (stereo not shown) [Compound 5-202] showed an insecticidal activity [3] of 100% and an insecticidal activity [2] of 100%.

With `CCc1cc(C(F)(C(F)(F)F)C(F)(F)C(F)(F)F)cc(C)c1NC(=O)c1ccc(CNC(=O)C2CC2)c(F)c1F` (stereo not shown) [Compound 5-203] the insecticidal activity [3] was 100% and the insecticidal activity [2] was 100%.

Compound `CCc1cc(C(F)(C(F)(F)F)C(F)(F)C(F)(F)F)cc(C)c1NC(=O)c1ccc(CNC(=O)CC2CC2)c(F)c1F` (stereo not shown) [Compound 5-204] has an insecticidal activity [3] of 100% and an insecticidal activity [2] of 100%.

For `CCc1cc(C(F)(C(F)(F)F)C(F)(F)C(F)(F)F)cc(C)c1NC(=O)c1ccc(CNC(=O)CC(F)(F)F)c(F)c1F` (stereo not shown) [Compound 5-205], the insecticidal activity [3] was 100% and the insecticidal activity [2] was 100%.

For `CCc1cc(C(F)(C(F)(F)F)C(F)(F)C(F)(F)F)cc(C)c1NC(=O)c1ccc(CNC(=O)c2cccnc2Cl)c(F)c1F` (stereo not shown) [Compound 5-206], the insecticidal activity [3] was 100% and the insecticidal activity [2] was 100%.

In the case of `CC(=O)NCc1ccc(C(=O)Nc2c(C)cc(C(F)(C(F)(F)F)C(F)(F)C(F)(F)F)cc2C)cc1Br` (stereo not shown) [Compound 5-211], the insecticidal activity [3] is reported as 100% and the insecticidal activity [2] is reported as 100%.

`CCC(=O)NCc1ccc(C(=O)Nc2c(C)cc(C(F)(C(F)(F)F)C(F)(F)C(F)(F)F)cc2C)cc1Br` (stereo not shown) [Compound 5-212] gave an insecticidal activity [3] of 100% and an insecticidal activity [2] of 100%.

`CC(=O)NCc1ccc(C(=O)Nc2c(Cl)cc(C(F)(C(F)(F)F)C(F)(F)F)cc2Cl)cc1Cl` [Compound 5-229, 4-(acetamidemethyl)-3-chloro-N-[2,6-dichloro-4-(1,1,1,2,3,3,3-heptafluoropropan-2-yl)phenyl]benzamide] gave a pest or weed control at 100 ppm ([3]; Aulacophora, foliar, 168 h, read-out: insecticidal activity) of 100% and a pest or weed control at 100 ppm ([2]; Spodoptera litura, foliar, 168 h, read-out: insecticidal activity) of 100%.

Work on `O=C(Nc1c(Cl)cc(C(F)(C(F)(F)F)C(F)(F)F)cc1Cl)c1ccc(CNC(=O)C2CC2)c(Cl)c1` [Compound 5-231] yielded an insecticidal activity [3] of 100% and an insecticidal activity [2] of 100%.

`CCC(=O)NCc1ccc(C(=O)Nc2c(Cl)cc(C(F)(C(F)(F)F)C(F)(F)C(F)(F)F)cc2Cl)cc1` (stereo not shown) [Compound 5-323] gave an insecticidal activity [3] of 100% and an insecticidal activity [2] of 100%.

`O=C(CC(F)(F)F)NCc1ccc(C(=O)Nc2c(Cl)cc(C(F)(C(F)(F)F)C(F)(F)C(F)(F)F)cc2Cl)cc1` (stereo not shown) [Compound 5-324] was tested, and the insecticidal activity [3] was 100% and the insecticidal activity [2] was 100%.

For `O=C(Nc1c(Cl)cc(C(F)(C(F)(F)F)C(F)(F)C(F)(F)F)cc1Cl)c1ccc(CNC(=O)C2CC2)cc1` (stereo not shown) [Compound 5-326], the insecticidal activity [3] was 100% and the insecticidal activity [2] was 100%.

Work on `CC(=O)NCc1ccc(C(=O)Nc2c(C)cc(C(F)(C(F)(F)F)C(F)(F)F)cc2Cl)cc1` [Compound 5-333] yielded an acaricidal activity [1] of 100%.

With `CCc1cc(C(F)(C(F)(F)F)C(F)(F)F)cc(C)c1NC(=O)c1ccc(CNC(=O)CC(F)(F)F)c2ccccc12` [Compound 6-6] the insecticidal activity [3] was 100% and the insecticidal activity [2] was 100%.

For `CCc1cc(C(F)(C(F)(F)F)C(F)(F)F)cc(C)c1NC(=O)c1ccc(CNC(=O)c2cccnc2F)c2ccccc12` [Compound 6-7], the insecticidal activity [3] was 100% and the insecticidal activity [2] was 100%.

Compound `CCc1cc(C(F)(C(F)(F)F)C(F)(F)F)cc(C)c1NC(=O)c1ccc(CNC(C)=O)cn1` [Compound 7-2] has an insecticidal activity [3] of 100% and an insecticidal activity [2] of 100%.

`CCC(=O)NCc1ccc(C(=O)Nc2c(C)cc(C(F)(C(F)(F)F)C(F)(F)F)cc2CC)nc1` [Compound 7-3] showed an insecticidal activity [3] of 100% and an insecticidal activity [2] of 100%.

`CCc1cc(C(F)(C(F)(F)F)C(F)(F)F)cc(C)c1NC(=O)c1ccc(CNC(C)=O)nc1` [Compound 8-2] gave an insecticidal activity [3] of 100% and an insecticidal activity [2] of 100%.

`CCc1cc(C(F)(C(F)(F)F)C(F)(F)F)cc(C)c1NC(=O)c1ccc(C(C)NC(=O)CC(F)(F)F)cc1` (stereo not shown) [Compound 9-6] gave an insecticidal activity [3] of 100% and an insecticidal activity [2] of 100%.

`CCc1cc(C(F)(C(F)(F)F)C(F)(F)F)cc(C)c1NC(=O)c1ccc2c(c1)CCC2NC(=O)CSC` (stereo not shown) [Compound 10-22] gave an insecticidal activity [3] of 100% and an insecticidal activity [2] of 100%.

`N#Cc1ccc(C(=O)Nc2c(Cl)cc(C(F)(C(F)(F)F)C(F)(F)F)cc2Cl)cc1` [Compound I-24] gave an insecticidal activity [3] of 100% and an insecticidal activity [2] of 100%.

For `N#Cc1ccc(C(=O)Nc2c(Br)cc(C(F)(C(F)(F)F)C(F)(F)F)cc2Br)cc1` [Compound I-26], the insecticidal activity [3] was 100% and the insecticidal activity [2] was 100%.

Work on `N#Cc1ccc(C(=O)Nc2c(Cl)cc(C(F)(C(F)(F)F)C(F)(F)C(F)(F)F)cc2Cl)cc1` (stereo not shown) [Compound I-27] yielded an insecticidal activity [3] of 100% and an insecticidal activity [2] of 100%.
